This note sets out measurements from PubChem BioAssay AID330 (DTP/NCI, 2004).

The test has as its system P388 leukemia ip, CD2F1 mice, survival T/C. Put plainly: NCI In Vivo Anticancer Drug Screen. Data for tumor model P388 Leukemia (intraperitoneal) in CD2F1 (CDF1) mice. Conditions: endpoint: median survival time, higher = longer survival. The method, boiled down:
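Mice carrying the transplanted tumor received test compound or vehicle. Survival was recorded in each group, and the value is the treated-group measurement divided by that of the vehicle-treated control group.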

[1] abbreviates: dose: 60.0 mg/kg/injection, schedule: Q01DX005 (ip), vehicle: saline with Tween-80.
The mark [2] stands for this setting: dose: 120.0 mg/kg/injection, schedule: Q01DX005 (ip), vehicle: saline with Tween-80.
Where [3] appears, read: dose: 240.0 mg/kg/injection, schedule: Q01DX005 (ip), vehicle: saline with Tween-80.
The mark [4] stands for this setting: dose: 30.0 mg/kg/injection, schedule: Q01DX005 (ip), vehicle: Klucel (hydroxypropylcellulose) (HPC).
[5] abbreviates: dose: 60.0 mg/kg/injection, schedule: Q01DX005 (ip), vehicle: Klucel (hydroxypropylcellulose) (HPC).
Setting [6] is: dose: 120.0 mg/kg/injection, schedule: Q01DX005 (ip), vehicle: Klucel (hydroxypropylcellulose) (HPC).
Where [7] appears, read: dose: 240.0 mg/kg/injection, schedule: Q01DX005 (ip), vehicle: Klucel (hydroxypropylcellulose) (HPC).
[8] abbreviates: dose: 50.0 mg/kg/injection, schedule: Q01DX009 (ip), vehicle: Klucel (hydroxypropylcellulose) (HPC).
Setting [9] is: dose: 100.0 mg/kg/injection, schedule: Q01DX009 (ip), vehicle: Klucel (hydroxypropylcellulose) (HPC).
Where [10] appears, read: dose: 200.0 mg/kg/injection, schedule: Q01DX009 (ip), vehicle: Klucel (hydroxypropylcellulose) (HPC).

Values joined by “and” are separate entries in the source; they are usually repeats but may differ in a detail not shown here. Equal entries are not always repeated. Inconclusive results and toxic doses are left out.

Regarding `COC(=O)C1(C)CCC=CC1Sc1ccccc1` (stereo not given), the T/C was 100 % of control (dose: 100.0 mg/kg/injection, schedule: Q04DX003 (ip), vehicle: Klucel (hydroxypropylcellulose) (HPC)); 105 % of control (dose: 200.0 mg/kg/injection, schedule: Q04DX003 (ip), vehicle: Klucel (hydroxypropylcellulose) (HPC)); 99 % of control (dose: 400.0 mg/kg/injection, schedule: Q04DX003 (ip), vehicle: Klucel (hydroxypropylcellulose) (HPC)).
As to `O=C(c1ccccc1)C(F)(F)C(F)(F)F`, the T/C runs as follows: (dose: 25.0 mg/kg/injection, schedule: Q01DX009 (ip), vehicle: saline with Tween-80) 107 % of control; (dose: 50.0 mg/kg/injection, schedule: Q01DX009 (ip), vehicle: saline with Tween-80) 109 % of control; (dose: 100.0 mg/kg/injection, schedule: Q01DX009 (ip), vehicle: saline with Tween-80) 110 % of control; (dose: 200.0 mg/kg/injection, schedule: Q01DX009 (ip), vehicle: saline with Tween-80) 109 % of control.
As to `CCn1c(=O)c(Cl)c2n(C)c3ccccc3n2c1=O`, the T/C reads like this: under setting [1], 97 % of control; under setting [2], 95 % of control; under setting [3], 94 % of control.
In the case of `COC(=O)C12CN3CC(C)(C1)C(=O)C(C)(C3)C2=O` (stereo not given), the T/C runs as follows: under setting [4], 100 % of control; under setting [5], 103 % of control and 107 % of control; under setting [6], 107 % of control; under setting [7], 89 % of control.
Consider `COC1CCC(CO)O1` (stereo not given), for which the T/C reads like this: (dose: 50.0 mg/kg/injection, schedule: Q01DX009 (ip), vehicle: suspension in saline) 100 % of control; (dose: 100.0 mg/kg/injection, schedule: Q01DX009 (ip), vehicle: suspension in saline) 108 % of control; (dose: 200.0 mg/kg/injection, schedule: Q01DX009 (ip), vehicle: suspension in saline) 102 % of control.
For `O=C(c1ccccc1)C(O)n1ccnc1` (stereo not given), the T/C by setting is: (dose: 50.0 mg/kg/injection, schedule: Q01DX009 (ip), vehicle: distilled water + alcohol) 102 % of control; (dose: 100.0 mg/kg/injection, schedule: Q01DX009 (ip), vehicle: distilled water + alcohol) 104 % of control; (dose: 200.0 mg/kg/injection, schedule: Q01DX009 (ip), vehicle: distilled water + alcohol) 107 % of control.
In the case of `CC(C)(C)c1cc(/C=N/n2c(-c3ccccc3)nc3ccccc3c2=O)cc(C(C)(C)C)c1O`, the T/C under setting [5] was 98 % of control, the T/C under setting [6] was 97 % of control and the T/C under setting [7] is 90 % of control.
On to `CC(C)(C)NC(=O)Nc1cccc(C(=O)O)c1`, for which the T/C by setting is: under setting [1], 99 % of control; under setting [2], 96 % of control; under setting [3], 105 % of control.
Take `COc1cc2c(c3c1C(=O)c1c(cc4c(c1O)C(OC)CC(C)(O)C4)C3=O)OC1OC2(C)C(O)C(N(C)C)C1O` (stereo not given): the T/C (dose: 1.25 mg/kg/injection, schedule: Q01DX009 (ip), vehicle: other) was 117 % of control; the T/C (dose: 2.5 mg/kg/injection, schedule: Q01DX009 (ip), vehicle: other) was 98 % of control; the T/C (dose: 5.0 mg/kg/injection, schedule: Q01DX009 (ip), vehicle: other) was 102 % of control; the T/C (dose: 20.0 mg/kg/injection, schedule: Q01DX009 (ip), vehicle: other) is 124 % of control; the T/C (dose: 40.0 mg/kg/injection, schedule: Q01DX009 (ip), vehicle: other) was 123 % of control; the T/C (dose: 200.0 mg/kg/injection, schedule: Q01DX009 (ip), vehicle: other) was 179 % of control.
For `C(=C\c1cccs1)/c1csnn1`, the T/C runs as follows: under setting [1], 101 % of control; under setting [2], 102 % of control; under setting [3], 101 % of control.
Regarding `O=C(CN1CCN(c2ccccc2)CC1)n1cnc2ccc([N+](=O)[O-])cc21`, the T/C is 96 % of control under setting [1] and 91 % of control under setting [2].
Turning to `CN(CCCCCl)C(=O)Oc1ccccc1`, the T/C under setting [8] was 102 % of control, the T/C under setting [9] was 106 % of control and the T/C under setting [10] is 99 % of control.
Turning to `NC(=NCc1ccccc1)N/N=C\c1ccnc2ccccc12`, the T/C is, setting by setting: (dose: 15.0 mg/kg/injection, schedule: Q01DX005 (ip), vehicle: Klucel (hydroxypropylcellulose) (HPC)) 101 % of control; under setting [4], 97 % of control; under setting [5], 95 % of control and 97 % of control.
In the case of `Cc1noc2c1C(=O)c1ccccc1SC2`, the T/C reads like this: under setting [1], 103 % of control; under setting [2], 94 % of control; under setting [3], 105 % of control.
In the case of `O=C1CCC(N2C(=O)C3C4CCC(O4)C3C2=O)C(=O)N1` (stereo not given), the T/C under setting [1] is 101 % of control, the T/C under setting [2] was 94 % of control and the T/C under setting [3] was 100 % of control.
Turning to `CC1C(c2ccccc2)OCCN1C=NC#N` (stereo not given), the T/C under setting [8] is 102 % of control, the T/C under setting [9] was 103 % of control and the T/C under setting [10] is 103 % of control.
Turning to `CN1CCN(CN2C(=O)C3C4C=CC(C3C2=O)C2C3C(=O)N(CN5CCN(C)CC5)C(=O)C3C42)CC1` (stereo not given), the T/C is 103 % of control (dose: 6.25 mg/kg/injection, schedule: Q01DX009 (ip), vehicle: water); 100 % of control (dose: 7.5 mg/kg/injection, schedule: Q01DX005 (ip), vehicle: water); 99 % of control (dose: 7.5 mg/kg/injection, schedule: Q01DX009 (ip), vehicle: water); 104 % of control (dose: 12.5 mg/kg/injection, schedule: Q01DX009 (ip), vehicle: water); 101 % of control and 96 % of control (dose: 15.0 mg/kg/injection, schedule: Q01DX005 (ip), vehicle: water); 105 % of control (dose: 15.0 mg/kg/injection, schedule: Q01DX009 (ip), vehicle: water). The T/C by setting is: (dose: 24.8 mg/kg/injection, schedule: Q01DX009 (ip), vehicle: water) 113 % of control; (dose: 25.0 mg/kg/injection, schedule: Q01DX009 (ip), vehicle: saline) 99 % of control; (dose: 25.0 mg/kg/injection, schedule: Q01DX009 (ip), vehicle: water) 104 % of control; (dose: 26.8 mg/kg/injection, schedule: Q01DX009 (ip), vehicle: water) 106 % of control and 118 % of control; (dose: 30.0 mg/kg/injection, schedule: Q01DX005 (ip), vehicle: water) 107 % of control and 119 % of control; (dose: 30.0 mg/kg/injection, schedule: Q01DX009 (ip), vehicle: water) 116 % of control and 121 % of control. The T/C reads like this: (dose: 44.6 mg/kg/injection, schedule: Q01DX009 (ip), vehicle: water) 151 % of control; (dose: 50.0 mg/kg/injection, schedule: Q01DX009 (ip), vehicle: saline) 106 % of control; (dose: 60.0 mg/kg/injection, schedule: Q01DX005 (ip), vehicle: water) 151 % of control; (dose: 60.0 mg/kg/injection, schedule: Q01DX009 (ip), vehicle: water) 165 % of control and 161 % of control; (dose: 68.8 mg/kg/injection, schedule: Q01DX009 (ip), vehicle: water) 172 % of control; (dose: 74.4 mg/kg/injection, schedule: Q01DX009 (ip), vehicle: water) 164 % of control and 190 % of control. Besides, the T/C was 211 % of control (dose: 100.0 mg/kg/injection, schedule: Q01DX009 (ip), vehicle: saline); 200 % of control and 207 % of control (dose: 100.0 mg/kg/injection, schedule: Q01DX009 (ip), vehicle: water); 111 % of control (dose: 120.0 mg/kg/injection, schedule: Q01DX009 (ip), vehicle: water); 105 % of control (dose: 124.0 mg/kg/injection, schedule: Q01DX009 (ip), vehicle: water).
For `Cn1nc(C(N)=O)c(=O)[nH]c1=S`, the T/C (dose: 50.0 mg/kg/injection, schedule: Q01DX005 (ip), vehicle: saline with Tween-80) was 100 % of control; the T/C (dose: 100.0 mg/kg/injection, schedule: Q01DX005 (ip), vehicle: saline with Tween-80) was 99 % of control; the T/C (dose: 200.0 mg/kg/injection, schedule: Q01DX005 (ip), vehicle: saline with Tween-80) was 103 % of control.
Take `C1=CN2C(c3ccccc3)=NN(c3ccccc3)[C@@H]2c2ccccc21`: the T/C runs as follows: (dose: 1.87 mg/kg/injection, schedule: Q01DX005 (ip), vehicle: saline with Tween-80) 102 % of control; (dose: 3.75 mg/kg/injection, schedule: Q01DX005 (ip), vehicle: saline with Tween-80) 102 % of control; (dose: 7.5 mg/kg/injection, schedule: Q01DX005 (ip), vehicle: saline with Tween-80) 103 % of control and 93 % of control.
